Laboratory results as given in ChEMBL document CHEMBL3885861, “Open TG-GATES”.

Species on record: Rattus norvegicus
Test: Open TG-GATES - Regimen: Single
Type: toxicity, organism-based, Sprague-Dawley
Parameters: regimen Single, gender Male, age 6 weeks
Conditions: in vivo, po, 300 mg/kg, route gavage, dose level Middle; for APTT / Bas / Eos / Fbg / Hb / Ht / Lym / MCH / MCHC / MCV / Mono / Neu / PT / Plat / RBC / Ret / WBC: tissue Blood; for KIDNEY_L / KIDNEY_R / KIDNEY_TOTAL: tissue Kidney; for LIVER: tissue Liver; for A/G / ALP / ALT / AST / BUN / CRE / Ca / Cl / DBIL / GLC / IP / K / LDH / Na / PL / RALB / TBIL / TC / TG / TP / gamma-GTP: tissue Plasma

Compound: O=C(OC[C@H]1O[C@@H](OC(=O)c2cc(O)c(O)c(OC(=O)c3cc(O)c(O)c(O)c3)c2)[C@H](OC(=O)c2cc(O)c(O)c(OC(=O)c3cc(O)c(O)c(O)c3)c2)[C@@H](OC(=O)c2cc(O)c(O)c(OC(=O)c3cc(O)c(O)c(O)c3)c2)[C@@H]1OC(=O)c1cc(O)c(O)c(OC(=O)c2cc(O)c(O)c(O)c2)c1)c1cc(O)c(O)c(OC(=O)c2cc(O)c(O)c(O)c2)c1 [TANNIC ACID]
- TERMINAL_BW (3 h): 187.9 g
- APTT (3 h): 16.5 s
- Bas (3 h): 0%
- Eos (3 h): 1%
- Fbg (3 h): 212 mg/dL
- Hb (3 h): 12.7 g/dL
- Ht (3 h): 37.9%
- Lym (3 h): 78.6%
- MCH (3 h): 21.9 pg
- MCHC (3 h): 33.4%
- MCV (3 h): 65.5 fL
- Mono (3 h): 7.6%
- Neu (3 h): 13.4%
- PT (3 h): 11.6 s
- Plat (3 h): 101.9 x10_4/uL
- RBC (3 h): 579.2 x10_4/ul
- Ret (3 h): 9.9%
- WBC (3 h): 113.5 x10_2/uL
- KIDNEY_L (3 h): 0.9 g
- KIDNEY_R (3 h): 0.9 g
- KIDNEY_TOTAL (3 h): 1.8 g
- LIVER (3 h): 8.5 g
- A/G (3 h): 2.2
- ALP (3 h): 1029.8 IU/L
- ALT (3 h): 37.6 IU/L
- AST (3 h): 68.6 IU/L
- BUN (3 h): 13.6 mg/dL
- CRE (3 h): 0.5 mg/dL
- Ca (3 h): 10.7 mg/dL
- Cl (3 h): 105 meq/L
- DBIL (3 h): 0.02 mg/dL
- GLC (3 h): 198 mg/dL
- IP (3 h): 10.6 mg/dL
- K (3 h): 4.7 meq/L
- LDH (3 h): 85.8 IU/L
- Na (3 h): 139.6 meq/L
- PL (3 h): 148.4 mg/dL
- RALB (3 h): 3.7 g/dL
- TBIL (3 h): 0.5 mg/dL
- TC (3 h): 81.6 mg/dL
- TG (3 h): 42.4 mg/dL
- TP (3 h): 5.3 g/dL
- gamma-GTP (3 h): 1.2 IU/L
- TERMINAL_BW (6 h): 184.2 g
- APTT (6 h): 16.5 s
- Bas (6 h): 0%
- Eos (6 h): 1%
- Fbg (6 h): 214.4 mg/dL
- Hb (6 h): 13 g/dL
- Ht (6 h): 39.1%
- Lym (6 h): 75.4%
- MCH (6 h): 22 pg
- MCHC (6 h): 33.3%
- MCV (6 h): 66.1 fL
- Mono (6 h): 8.6%
- Neu (6 h): 15.2%
- PT (6 h): 12 s
- Plat (6 h): 112.5 x10_4/uL
- RBC (6 h): 591.4 x10_4/ul
- Ret (6 h): 9.6%
- WBC (6 h): 93 x10_2/uL
- KIDNEY_L (6 h): 0.9 g
- KIDNEY_R (6 h): 0.9 g
- KIDNEY_TOTAL (6 h): 1.8 g
- LIVER (6 h): 8.2 g
- A/G (6 h): 1.9
- ALP (6 h): 784.6 IU/L
- ALT (6 h): 38.4 IU/L
- AST (6 h): 67.2 IU/L
- BUN (6 h): 12.2 mg/dL
- CRE (6 h): 0.5 mg/dL
- Ca (6 h): 10.6 mg/dL
- Cl (6 h): 105.6 meq/L
- DBIL (6 h): 0.03 mg/dL
- GLC (6 h): 184.2 mg/dL
- IP (6 h): 10.2 mg/dL
- K (6 h): 4.8 meq/L
- LDH (6 h): 106.8 IU/L
- Na (6 h): 139.2 meq/L
- PL (6 h): 133 mg/dL
- RALB (6 h): 3.4 g/dL
- TBIL (6 h): 0.6 mg/dL
- TC (6 h): 74.4 mg/dL
- TG (6 h): 32 mg/dL
- TP (6 h): 5.2 g/dL
- gamma-GTP (6 h): 1.4 IU/L
- TERMINAL_BW (9 h): 182 g
- APTT (9 h): 16.4 s
- Bas (9 h): 0%
- Eos (9 h): 1%
- Fbg (9 h): 219.8 mg/dL
- Hb (9 h): 13 g/dL
- Ht (9 h): 39%
- Lym (9 h): 74.8%
- MCH (9 h): 21.9 pg
- MCHC (9 h): 33.3%
- MCV (9 h): 65.9 fL
- Mono (9 h): 6.8%
- Neu (9 h): 17.2%
- PT (9 h): 12.1 s
- Plat (9 h): 122.2 x10_4/uL
- RBC (9 h): 592.8 x10_4/ul
- Ret (9 h): 11%
- WBC (9 h): 92.9 x10_2/uL
- KIDNEY_L (9 h): 0.8 g
- KIDNEY_R (9 h): 0.8 g
- KIDNEY_TOTAL (9 h): 1.6 g
- LIVER (9 h): 7.5 g
- A/G (9 h): 2.1
- ALP (9 h): 836.4 IU/L
- ALT (9 h): 35 IU/L
- AST (9 h): 60.6 IU/L
- BUN (9 h): 12.6 mg/dL
- CRE (9 h): 0.4 mg/dL
- Ca (9 h): 10.4 mg/dL
- Cl (9 h): 105.4 meq/L
- DBIL (9 h): 0.034 mg/dL
- GLC (9 h): 191.4 mg/dL
- IP (9 h): 10 mg/dL
- K (9 h): 5.1 meq/L
- LDH (9 h): 92.2 IU/L
- Na (9 h): 137.2 meq/L
- PL (9 h): 126.8 mg/dL
- RALB (9 h): 3.7 g/dL
- TBIL (9 h): 0.5 mg/dL
- TC (9 h): 70.4 mg/dL
- TG (9 h): 32.4 mg/dL
- TP (9 h): 5.4 g/dL
- gamma-GTP (9 h): 1.8 IU/L
- TERMINAL_BW (24 h): 201.5 g
- APTT (24 h): 15.9 s
- Bas (24 h): 0%
- Eos (24 h): 0.8%
- Fbg (24 h): 217.8 mg/dL
- Hb (24 h): 13 g/dL
- Ht (24 h): 38.9%
- Lym (24 h): 75%
- MCH (24 h): 22 pg
- MCHC (24 h): 33.4%
- MCV (24 h): 65.8 fL
- Mono (24 h): 8.2%
- Neu (24 h): 16.2%
- PT (24 h): 11.7 s
- Plat (24 h): 110.3 x10_4/uL
- RBC (24 h): 591.6 x10_4/ul
- Ret (24 h): 9.5%
- WBC (24 h): 114.2 x10_2/uL
- KIDNEY_L (24 h): 0.9 g
- KIDNEY_R (24 h): 0.9 g
- KIDNEY_TOTAL (24 h): 1.8 g
- LIVER (24 h): 10.2 g
- A/G (24 h): 1.7
- ALP (24 h): 852.4 IU/L
- ALT (24 h): 44.4 IU/L
- AST (24 h): 67.8 IU/L
- BUN (24 h): 18.4 mg/dL
- CRE (24 h): 0.5 mg/dL
- Ca (24 h): 10.8 mg/dL
- Cl (24 h): 103.8 meq/L
- DBIL (24 h): 0.002 mg/dL
- GLC (24 h): 193.8 mg/dL
- IP (24 h): 9.1 mg/dL
- K (24 h): 4.4 meq/L
- LDH (24 h): 109.6 IU/L
- Na (24 h): 138.8 meq/L
- PL (24 h): 139 mg/dL
- RALB (24 h): 3.5 g/dL
- TBIL (24 h): 0.3 mg/dL
- TC (24 h): 75.2 mg/dL
- TG (24 h): 103.8 mg/dL
- TP (24 h): 5.6 g/dL
- gamma-GTP (24 h): 1.2 IU/L
